Laboratory results taken from patent US10918768B2, “Human skin equivalents expressing exogenous polypeptides” (Stratatech Corporation, priority 2003, dated 2021).

System: Staphylococcus carnosus
Test: antimicrobial activity assay (viable bacteria, CFU/ml)
Format: cell-based
Details: synthetic peptide standard curve; 37° C. for 1.5 hr
Method: The antimicrobial activity assay employed Escherichia coli and Staphylococcus carnosus and is a modification of the protocol described by Porter and coworkers (Porter, E. M., et al., Infect Immun, 1997. 65(6): p. 2396-401). Briefly, gram-positive or gram-negative bacteria are grown overnight. The following day the test organisms are subcultured for 2.5 hr and working dilutions of 10^4 bacteria/ml for Escherichia coli or 10^5 bacteria/ml of Staphylococcus carnosus in 10 mM sodium phosphate (pH 7.4)-1% TSB are created. All the reactions mix 50 μl of experimental reagent (lysis, supernatants or purified protein) with 50 μl of bacterial suspension. These reactions are then incubated at 37° C. for 1.5 hr. The reactions are diluted 100-fold in 10 mM sodium phosphate (pH 7.4)-1% TSB and plated on TSB plates using a spiral plater (Spiral Biotech, Norwood, Mass.). The plates are then incubated for 12 to 16 hr at 37° C. Colonies on these plates are counted and the number of viable bacteria is determined and expressed as colony forming units per milliliter (CFU/ml).
This example describes the development of an assay to detect LL-37 antimicrobial activity. […] A standard curve for the antimicrobial activity of LL-37 was determined for gram-positive bacteria, S. carnosus using this synthetic peptide.

CC[C@H](C)[C@H](NC(=O)[C@H](CCCCN)NC(=O)[C@H](CCC(=O)O)NC(=O)[C@H](CCCCN)NC(=O)[C@H](CO)NC(=O)[C@H](CCCCN)NC(=O)[C@H](CCCNC(=N)N)NC(=O)[C@H](Cc1ccccc1)NC(=O)[C@H](Cc1ccccc1)NC(=O)[C@H](CC(=O)O)NC(=O)CNC(=O)[C@H](CC(C)C)NC(=O)[C@@H](N)CC(C)C)C(=O)NCC(=O)N[C@@H](CCCCN)C(=O)N[C@@H](CCC(=O)O)C(=O)N[C@@H](Cc1ccccc1)C(=O)N[C@@H](CCCCN)C(=O)N[C@@H](CCCNC(=N)N)C(=O)N[C@H](C(=O)N[C@H](C(=O)N[C@@H](CCC(N)=O)C(=O)N[C@@H](CCCNC(=N)N)C(=O)N[C@H](C(=O)N[C@@H](CCCCN)C(=O)N[C@@H](CC(=O)O)C(=O)N[C@@H](Cc1ccccc1)C(=O)N[C@@H](CC(C)C)C(=O)N[C@@H](CCCNC(=N)N)C(=O)N[C@@H](CC(N)=O)C(=O)N[C@@H](CC(C)C)C(=O)N[C@H](C(=O)N1CCC[C@H]1C(=O)N[C@@H](CCCNC(=N)N)C(=O)N[C@H](C(=O)N[C@@H](CCC(=O)O)C(=O)N[C@@H](CO)C(=O)O)[C@@H](C)O)C(C)C)[C@@H](C)CC)C(C)C)[C@@H](C)CC [LL-37]
concentration necessary to kill 50% (LC50) of S. carnosus: 0.9 µg/mL
